Legend:
Botrytis cinerea = Botrytis cinerea (gray mold) in vitro test, radial growth on Potato Dextrose Agar; format: cell-based; conditions: 168 h, compared to the untreated check, radial growth after seven days, read-out: control
Pyricularia oryzae = assay: microbe, parasite or virus in culture; format: cell-based; conditions: 168 h, read-out: control
Rhizoctonia solani = Rhizoctonia solani (rice sheath blight/potato black scurf) in vitro test, radial growth on Potato Dextrose Agar; format: cell-based; conditions: 168 h, compared to the untreated check, radial growth after seven days, read-out: control
Fusarium culmorum = Fusarium culmorum (foot rot of cereals) in vitro test, radial growth on Potato Dextrose Agar; format: cell-based; conditions: 168 h, 25° C., seven days, read-out: control compared to the untreated check (radial growth)
Colletotrichum capsici = Colletotrichum capsici (anthracnose) in vitro test, radial growth on Potato Dextrose Agar; conditions: Colletotrichum truncatum, 168 h, read-out: control
Description: Compounds were dissolved in 0.3% DMSO and then added to Potato Dextrose Agar medium just prior to dispensing it into petri dishes. 5 mL medium with compound in the desired concentration was dispensed into 60 mm sterile petri-plates. After solidification, each plate was seeded with a 5 mm size mycelial disc taken form the periphery of an actively growing virulent culture plate. Plates were incubated in growth chambers at 25° C. temperature and 60% relative humidity for seven days and radial growth was measured.

Alternaria solani = Alternaria solani (early blight of tomato/potato) in vitro test, radial growth on Potato Dextrose Agar; format: cell-based; conditions: 168 h, compared to the untreated check, radial growth after seven days, read-out: control
Corynespora cassicola = Corynespora cassicola (leaf spot of tomato) in vitro test, radial growth on Potato Dextrose Agar; format: cell-based; conditions: 168 h, compared to the untreated check, radial growth after seven days, read-out: control
Phakopsora pachyrhizi = Phakopsora pachyrhizi test in soybean (greenhouse, preventive activity, disease severity rating); format: in vivo; conditions: preventive spray on soybean, compared to the untreated check
How it was run: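 Greenhouse-raised young soybean plants sprayed with compound at stated rates, then inoculated one day later with 2.1×10^6 P. pachyrhizi spores and held at 25° C, 90% RH. Disease severity (0-100%) rated visually 3, 7, 10 and 15 days after application; % control calculated versus untreated plants.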

CC(=O)N1CC(N(C)c2ccc(-c3noc(C(F)(F)F)n3)cc2)C1 [Compound 89, 1-(3-(methyl(4-(5-(trifluoromethyl)-1,2,4-oxadiazol-3-yl)phenyl)amino)azetidin-1-yl)ethan-1-one]
> 70%: inhibition of growth at 300 ppm (Botrytis cinerea) | inhibition of growth at 300 ppm (Pyricularia oryzae) | inhibition of growth at 300 ppm (Rhizoctonia solani) | inhibition of growth at 300 ppm (Fusarium culmorum) | inhibition of growth at 300 ppm (Colletotrichum capsici) | inhibition of growth at 300 ppm (Alternaria solani) | inhibition of growth at 300 ppm (Corynespora cassicola)

CC(=O)N1CCC(Oc2ccc(-c3noc(C(F)(F)F)n3)cc2)CC1 [Compound 95, 1-(4-(4-(5-(trifluoromethyl)-1,2,4-oxadiazol-3-yl)phenoxy)piperidin-1-yl)ethan-1-one]
> 70%: inhibition of growth at 300 ppm (Botrytis cinerea) | inhibition of growth at 300 ppm (Pyricularia oryzae) | inhibition of growth at 300 ppm (Rhizoctonia solani) | inhibition of growth at 300 ppm (Fusarium culmorum) | inhibition of growth at 300 ppm (Colletotrichum capsici) | inhibition of growth at 300 ppm (Alternaria solani) | inhibition of growth at 300 ppm (Corynespora cassicola)

CC(=O)N1CC[C@H](Oc2ccc(-c3noc(C(F)(F)F)n3)cc2F)C1 [Compound 69, (S)-1-(3-(2-fluoro-4-(5-(trifluoromethyl)-1,2,4-oxadiazol-3-yl)phenoxy)pyrrolidin-1-yl)ethan-1-one]
> 70%: inhibition of growth at 300 ppm (Botrytis cinerea) | inhibition of growth at 300 ppm (Pyricularia oryzae) | inhibition of growth at 300 ppm (Rhizoctonia solani) | inhibition of growth at 300 ppm (Fusarium culmorum) | inhibition of growth at 300 ppm (Colletotrichum capsici) | inhibition of growth at 300 ppm (Alternaria solani) | inhibition of growth at 300 ppm (Corynespora cassicola)

CC(=O)N1CC[C@H](Oc2ccc(-c3noc(C(F)(F)F)n3)cc2)C1 [Compound 2, (S)-1-(3-(4-(5-(trifluoromethyl)-1,2,4-oxadiazol-3-yl)phenoxy)pyrrolidin-1-yl)ethan-1-one]
> 70%: inhibition of growth at 300 ppm (Botrytis cinerea) | inhibition of growth at 300 ppm (Pyricularia oryzae) | inhibition of growth at 300 ppm (Rhizoctonia solani) | inhibition of growth at 300 ppm (Fusarium culmorum) | inhibition of growth at 300 ppm (Colletotrichum capsici) | inhibition of growth at 300 ppm (Alternaria solani) | inhibition of growth at 300 ppm (Corynespora cassicola) | pest or weed control at 500 ppm (Phakopsora pachyrhizi)

O=C(c1ccncc1)N1CC[C@H](Oc2ccc(-c3noc(C(F)(F)F)n3)c(F)c2)C1 [Compound 66, (S)-(3-(3-fluoro-4-(5-(trifluoromethyl)-1,2,4-oxadiazol-3-yl)phenoxy)pyrrolidin-1-yl)(pyridin-4-yl)methanone]
> 70%: inhibition of growth at 300 ppm (Botrytis cinerea) | inhibition of growth at 300 ppm (Pyricularia oryzae) | inhibition of growth at 300 ppm (Rhizoctonia solani) | inhibition of growth at 300 ppm (Fusarium culmorum) | inhibition of growth at 300 ppm (Colletotrichum capsici) | inhibition of growth at 300 ppm (Alternaria solani) | inhibition of growth at 300 ppm (Corynespora cassicola)

O=C(Cc1ccccn1)N1CC[C@H](Oc2ccc(-c3noc(C(F)(F)F)n3)cc2)C1 [Compound 55, (S)-2-(pyridin-2-yl)-1-(3-(4-(5-(trifluoromethyl)-1,2,4-oxadiazol-3-yl)phenoxy)pyrrolidin-1-yl)ethan-1-one]
> 70%: inhibition of growth at 300 ppm (Botrytis cinerea) | inhibition of growth at 300 ppm (Pyricularia oryzae) | inhibition of growth at 300 ppm (Rhizoctonia solani) | inhibition of growth at 300 ppm (Fusarium culmorum) | inhibition of growth at 300 ppm (Colletotrichum capsici) | inhibition of growth at 300 ppm (Corynespora cassicola)

O=C(c1ccncc1)N1CC[C@H](Oc2ccc(-c3noc(C(F)(F)F)n3)cc2)C1 [Compound 13, (S)-pyridin-4-yl(3-(4-(5-(trifluoromethyl)-1,2,4-oxadiazol-3-yl)phenoxy)pyrrolidin-1-yl)methanone]
> 70%: inhibition of growth at 300 ppm (Botrytis cinerea) | inhibition of growth at 300 ppm (Pyricularia oryzae) | inhibition of growth at 300 ppm (Rhizoctonia solani) | inhibition of growth at 300 ppm (Fusarium culmorum) | inhibition of growth at 300 ppm (Colletotrichum capsici) | inhibition of growth at 300 ppm (Alternaria solani) | pest or weed control at 500 ppm (Phakopsora pachyrhizi)

CCC(=O)N1CC(N(C)c2ccc(-c3noc(C(F)(F)F)n3)cc2)C1 [Compound 100, 1-(3-(methyl(4-(5-(trifluoromethyl)-1,2,4-oxadiazol-3-yl)phenyl)amino)azetidin-1-yl)propan-1-one]
> 70%: inhibition of growth at 300 ppm (Botrytis cinerea) | inhibition of growth at 300 ppm (Pyricularia oryzae) | inhibition of growth at 300 ppm (Rhizoctonia solani) | inhibition of growth at 300 ppm (Fusarium culmorum) | inhibition of growth at 300 ppm (Colletotrichum capsici) | inhibition of growth at 300 ppm (Alternaria solani) | inhibition of growth at 300 ppm (Corynespora cassicola) | pest or weed control at 500 ppm (Phakopsora pachyrhizi)
